The text below walks through data of article PMC3885398, “Evaluation of the Antitumor Effects of BPR1J-340, a Potent and Selective FLT3 Inhibitor, Alone or in Combination with an HDAC Inhibitor, Vorinostat, in AML Cancer” (PLoS ONE, 2014).

For one test, the target named is FLT3-ITD (Homo sapiens, UniProt P36888, ITD). The experiment in a line: FLT3 phosphorylation in transfected HEK293T cells, Western blot. To be noted: HEK293T cells expressing FLT3-ITD, 1 hr, FLT3 ligand 50 ng/mL 5 min. In kind it is cell-based. The method, then:
(§1) Cells were lysed in lysis buffer (50 mM Tris, pH 8.0, 150 mM NaCl, 1% Triton X-100, 0.5% sodium deoxycholate, 0.1% SDS, 1 mM sodium orthovanadate, 1 mM PMSF, and 1 mM DTT). Protein lysates were resolved by SDS-PAGE and transferred onto a polyvinylidene difluoride (PVDF) membrane (Millipore, Bedford, MA, USA). The membranes were immunoblotted with appropriate antibodies and detected using the SuperSignal reagent (Pierce, Rockford, IL, USA) followed by exposure to X-ray film.
(§2) To address whether BPR1J-340 was able to inhibit the FLT3 signaling pathway in FLT3-driven cells, MV4;11 cells were treated with different concentrations of BPR1J-340 for 1 hour, and the phosphorylation status of FLT3 and STAT5 (Signal Transducer and Activator of Transcription 5), a critical down-stream modulator that plays a major role in FLT3-ITD signal transduction for cell expansion and survival, was examined by Western blot analysis. […] To investigate the difference in sensitivity between FLT3-WT and the activating mutants FLT3-ITD and FLT3-D835Y to BPR1J-340, HEK293T cells engineered to express FLT3-WT or mutants FLT3 (FLT3-ITD, FLT3-D835Y) were analyzed. […]
(§3) Figure 2 BPR1J-340 inhibits FLT3-dependent signaling. […] The phosphorylation status of FLT3 and STAT5 were evaluated by Western blot analysis. […] The FLT3 phosphorylation status in the transfected cells was evaluated by Western blot analysis.

For a further test, the target named is T1, FLT3-WT (Homo sapiens, UniProt P36888).
T1 construct: expressed in transfected cells; host or cells: HEK293T
T1 sequence (P36888 27-993): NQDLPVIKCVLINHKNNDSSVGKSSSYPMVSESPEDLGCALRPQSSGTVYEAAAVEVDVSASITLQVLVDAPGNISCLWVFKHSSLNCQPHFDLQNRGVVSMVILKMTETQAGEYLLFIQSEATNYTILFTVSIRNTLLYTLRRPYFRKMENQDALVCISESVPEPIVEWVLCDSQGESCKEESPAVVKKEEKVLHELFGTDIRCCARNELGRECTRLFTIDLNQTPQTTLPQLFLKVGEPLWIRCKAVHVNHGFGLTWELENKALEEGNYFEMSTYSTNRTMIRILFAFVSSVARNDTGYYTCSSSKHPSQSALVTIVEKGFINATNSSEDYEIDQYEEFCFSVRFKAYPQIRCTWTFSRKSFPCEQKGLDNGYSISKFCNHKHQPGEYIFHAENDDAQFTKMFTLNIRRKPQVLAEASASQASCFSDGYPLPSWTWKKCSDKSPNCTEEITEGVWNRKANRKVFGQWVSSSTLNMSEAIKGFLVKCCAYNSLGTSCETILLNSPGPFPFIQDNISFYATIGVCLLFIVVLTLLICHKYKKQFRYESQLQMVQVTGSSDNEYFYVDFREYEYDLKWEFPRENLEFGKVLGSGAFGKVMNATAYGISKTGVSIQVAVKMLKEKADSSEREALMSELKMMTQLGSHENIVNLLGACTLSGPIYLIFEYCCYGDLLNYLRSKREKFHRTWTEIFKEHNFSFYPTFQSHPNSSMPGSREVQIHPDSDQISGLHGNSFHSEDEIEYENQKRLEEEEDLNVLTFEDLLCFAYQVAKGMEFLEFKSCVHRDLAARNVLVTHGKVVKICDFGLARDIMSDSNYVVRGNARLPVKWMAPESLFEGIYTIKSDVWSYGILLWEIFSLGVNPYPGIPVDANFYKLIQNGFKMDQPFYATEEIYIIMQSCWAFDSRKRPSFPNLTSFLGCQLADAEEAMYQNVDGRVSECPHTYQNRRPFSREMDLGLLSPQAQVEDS
The test is described as above. It counts as cell-based. To be noted: HEK293T cells expressing FLT3-WT, 1 hr, FLT3 ligand 50 ng/mL 5 min. The method, then: as §1, §2, §3

The target of the next test is KDR (VEGFR2) (Homo sapiens, UniProt P35968). The experiment in a line: VEGFR2 Kinase-Glo kinase assay. On the set-up: VEGFR2 (residues V789-V1356); made in house. In kind it is biochemical. Here is the method:
(§4) The FLT3 inhibitors, BPR1J-340 and AC220, were synthesized by our laboratory. The histone deacetylase inhibitor vorinostat (SAHA) was purchased from SelleckBio (Houston, TX, USA). All inhibitors were dissolved in dimethylsulfoxide (DMSO) at a stock concentration of 10 mM. The anti-FLT3 (sc-480, Santa Cruz Biotechnology, Santa Cruz, CA, USA), anti-pFLT3-Tyr591 (#3461, Cell Signaling Technology, Beverly, MA, USA) anti-STAT5 (#9363, Cell Signaling Technology), anti-pSTAT5–Tyr694 (#9351, Cell Signaling Technology), anti-cleaved poly ADP-ribose polymerase (PARP) (#9542, Cell Signaling Technology), anti-Mcl-1 (#4572, Cell Signaling Technology), anti-caspase 3 (#9662, Cell Signaling Technology) and anti-β-actin (Gtx110546, GeneTex, Irvine, CA, USA) antibodies were purchased for Western blotting analysis. The preparation of recombinant proteins, FLT3 (residues Y567-S993), VEGFR1 (residues R781-I1338) and VEGFR2 (residues V789-V1356), for biochemical kinase assay was described previously. The VEGFR3 (residues M800-Y1363) proteins were purchased from Upstate (Billerica, MA, USA).
(§5) The FLT3 and VEGFR1/2 Kinase-Glo kinase assays were performed as reported by our earlier study. […] The kinase inhibition profiling and inhibitory activity of FLT3-D835Y, CSF1R, and TRKA were determined by Invitrogen SelectScreen® kinase profiling service (Carlsbad, California, USA).

The target of a further test is T2, FLT1 (VEGFR1) (Homo sapiens, UniProt P17948).
T2 construct: VEGFR1 (residues R781-I1338); made in house
T2 sequence (P17948 781-1338): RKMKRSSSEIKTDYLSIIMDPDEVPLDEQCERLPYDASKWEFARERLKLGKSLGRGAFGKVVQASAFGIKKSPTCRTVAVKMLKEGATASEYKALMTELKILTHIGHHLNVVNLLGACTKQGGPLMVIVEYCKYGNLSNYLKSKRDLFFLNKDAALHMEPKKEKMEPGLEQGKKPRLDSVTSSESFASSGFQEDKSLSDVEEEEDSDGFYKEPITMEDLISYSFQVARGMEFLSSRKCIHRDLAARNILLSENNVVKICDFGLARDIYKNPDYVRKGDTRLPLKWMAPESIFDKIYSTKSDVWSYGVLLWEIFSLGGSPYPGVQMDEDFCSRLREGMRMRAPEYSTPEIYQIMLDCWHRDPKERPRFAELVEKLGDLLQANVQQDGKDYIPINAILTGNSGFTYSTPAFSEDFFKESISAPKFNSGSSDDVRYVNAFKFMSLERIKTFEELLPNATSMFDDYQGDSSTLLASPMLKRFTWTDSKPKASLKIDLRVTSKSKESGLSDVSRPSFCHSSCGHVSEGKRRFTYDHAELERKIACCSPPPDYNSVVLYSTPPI
The experiment in a line: VEGFR1 Kinase-Glo kinase assay. It counts as biochemical. The method, then:
as §4, §5
(In Kinase-Glo more light means more ATP remaining.)

Sequence of FLT3-ITD (P36888 27-993, change not shown): as the sequence (P36888 27-993) above
Sequence of KDR (VEGFR2) (P35968 789-1356): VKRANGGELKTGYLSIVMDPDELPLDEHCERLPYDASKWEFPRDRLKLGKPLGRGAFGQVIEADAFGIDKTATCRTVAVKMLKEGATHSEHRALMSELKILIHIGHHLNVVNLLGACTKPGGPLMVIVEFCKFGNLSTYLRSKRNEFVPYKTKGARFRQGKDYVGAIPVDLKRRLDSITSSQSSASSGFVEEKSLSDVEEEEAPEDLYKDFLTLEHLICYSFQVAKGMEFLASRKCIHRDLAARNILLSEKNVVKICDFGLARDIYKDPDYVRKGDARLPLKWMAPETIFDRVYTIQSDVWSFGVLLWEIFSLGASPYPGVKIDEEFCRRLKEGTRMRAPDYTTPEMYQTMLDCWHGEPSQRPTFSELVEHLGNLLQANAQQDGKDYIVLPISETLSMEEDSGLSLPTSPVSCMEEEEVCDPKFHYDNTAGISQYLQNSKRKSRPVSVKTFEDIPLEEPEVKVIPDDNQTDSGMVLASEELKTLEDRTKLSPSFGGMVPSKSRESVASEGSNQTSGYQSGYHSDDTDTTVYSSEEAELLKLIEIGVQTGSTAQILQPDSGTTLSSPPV

In general, IC50 refers to the point on the concentration scale where inhibition reaches its midpoint. Consider `CCc1cc(NC(=O)NCc2ccc(-c3cc(NC(=O)c4ccc(CN5CCN(C)CC5)cc4)[nH]n3)cc2)no1` [BPR1J-340, N1-(3-4-[([(5-ethyl-3-isoxazolyl)amino]carbonylamino)methyl]phenyl-1H-5-pyrazolyl)-4-[(4-methylpiperazino)methyl]benzamide], for which the IC50 on FLT3-ITD is 10 to 100 nM; against FLT3-WT, 10 to 100 nM; against KDR (VEGFR2), 28 ± 9 nM; against FLT1 (VEGFR1), 164 ± 24 nM.
